Test [1] deals with T1, recombinant human galectin-3 (Homo sapiens, UniProt P17931).
T1 construct: made in house; host or cells: Escherichia coli
Nature of the test: Inhibition of galectin-3 binding to Galα3Galβ4GlcNAcβ-HRP conjugate (galectin-3 coated microwells). The conditions noted are these: for IC50: competitive inhibition of Galα3Galβ4GlcNAcβ trisaccharide:HRP conjugate binding to galectin-3 coated microwells, five-fold serial dilutions; for Krel: ratio of IC50 of reference compound 25 and IC50 of the inhibitor. On the procedure:
NMR-spectra were recorded with a Bruker DRX-400 instrument. Chemical shifts are given in ppm, with reference to internal CHCl3 (δ 7.26 ppm) or HDO (δ 4.81 ppm). Chemical shifts and coupling constants were obtained from ^1H-NMR and proton resonances were assigned from COSY experiments. High-resolution FAB mass spectra (HRMS) were recorded with a JEOL SX-120 instrument. MALDI-TOF Spectra were recorded with a Bruker, Biflex instrument. Column chromatography was performed on SiO2 (Matrex, 60 Å, 35–70 μm, Grace Amicon) and TLC was carried out on SiO2 60 F254 (Merck) with detection under UV light and developed with aqueous sulfuric acid. Concentrations were made using rotary evaporation with bath temperature at or below 40° C. CH2Cl2 and CH3CN were dried by distillation from CaH2. Pyridine was dried over 4 Å molecular sieves. DMF was distilled and dried over 4 Å molecular sieves. MeOH and EtOH were dried over 3 Å molecular sieves. Microwell plates were from Nalge Nunc International (Nunc-immuno plate, maxisorp surface). PBS containing 0.05% Tween 20 is abbreviated PBS-T and PBS-T containing 1% BSA is abbreviated PBSA-T. Recombinant human galectin-3 was produced in Escherichia coli and purified as previously described (S. M. Massa et al, 1993). […] Microwell plates were developed with a TMB-peroxidase substrate kit (BioRad 172–1066) according to the manufacturers recommendations.
The compounds prepared above (12–24) were tested for their ability to inhibiting the binding of galectin-3 to a Galα3Galβ4GlcNAcβ trisaccharide:horseradish peroxidase conjugate.
Screening experiments. […] The wells were washed with PBS-T after 1 hour incubation at room temperature; followed by development with the TMB-peroxidase substrate kit. The reaction was stopped after 60 min by addition of 1N sulfuric acid (100 μL/well) and optical density was read at 450 nm. Each experiment was conducted twice with each sample in duplicate. […] Microtiter plate wells were coated with recombinant galectin-3 (10 μg/ml, 50 μl/well) from E. coli at 4° C. overnight, then washed three times with PBS-T. The wells were blocked with PBSA-T (100 μl/well) for 1 hour at room temperature, followed by washing with PBS-T. To the first well was added 125 μL of inhibitors 16, 18–19and 25 (0.2 mM in PBS-T). A five-fold serial dilution was performed by transfering 25 μL from the first well to a second well containing 100 μL PBS-T, mixing, then transfering 25 μL from the second well to a third well also containing 100 μL PBS-T, and so on to the eight well from which 25 μL were discarded. The dilution series was done in duplicate. […] Incubation, washing, and detection was performed as described above. The data was analyzed with non-linear regression analysis using the program Kaleidagraph™ from Synergy Software.

Another test deals with galectins. The conditions noted are these: cited from earlier work.

T1 sequence (P17931 whole entry): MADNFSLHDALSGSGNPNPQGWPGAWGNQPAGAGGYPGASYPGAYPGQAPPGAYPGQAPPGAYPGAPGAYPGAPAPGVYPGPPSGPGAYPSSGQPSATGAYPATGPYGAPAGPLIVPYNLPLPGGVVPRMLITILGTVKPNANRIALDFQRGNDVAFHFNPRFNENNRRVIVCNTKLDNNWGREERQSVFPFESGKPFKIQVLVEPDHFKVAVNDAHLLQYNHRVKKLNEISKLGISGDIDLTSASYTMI

By IC50 is commonly meant the concentration needed to halve the response being measured. With `CO[C@@H]1O[C@H](CO)[C@@H](O[C@@H]2O[C@H](CO)[C@H](O)[C@H](NC(=O)c3ccccc3)[C@H]2O)[C@H](O)[C@H]1NC(C)=O` [Compound 16, methyl 2-acetamido-2-deoxy-4-O-(3-benzamido-3-deoxy-β-D-galactopyranosyl)-β-D-glucopyranoside], in test [1], the IC50 turned out to be 23 µM and the Krel was determined as 9.

On to `COc1c(F)c(F)c(C(=O)N[C@H]2[C@@H](O)[C@@H](CO)O[C@@H](O[C@H]3[C@H](O)[C@@H](NC(C)=O)[C@H](OC)O[C@@H]3CO)[C@@H]2O)c(F)c1F` [Compound 18, methyl 2-acetamido-2-deoxy-4-O-(3-[4-methoxy-2,3,5,6-tetrafluorobenzamido]-3-deoxy-β-D-galactopyranosyl)-β-D-glucopyranoside], for which, in test [1], the concentration for half-maximal inhibition (IC50) came to 4.8 µM and the Krel is on record as 41.

On to `CO[C@@H]1O[C@H](CO)[C@@H](O[C@@H]2O[C@H](CO)[C@H](O)[C@H](NC(=O)c3c(F)c(F)c(F)c(F)c3C(=O)O)[C@H]2O)[C@H](O)[C@H]1NC(C)=O` [Compound 19, methyl 2-acetamido-2-deoxy-4-O-(3-[2-carboxy-3,4,5,6-tetrafluorobenzamido]-3-deoxy-β-D-galactopyranosyl)-β-D-glucopyranoside], for which, in test [1], the IC50 stood at 11.2 µM and the Krel is reported as 18.

Broadly, the inhibition is the relative decrease from the control value, in per cent. In the case of `CO[C@@H]1O[C@H](CO)[C@@H](O[C@@H]2O[C@H](CO)[C@H](O)[C@H](O)[C@H]2O)[C@H](O)[C@H]1NC(C)=O` [Compound 25, methyl 4-O-β-D-galactopyranosyl-2-acetamido-2-deoxy-β-D-glucopyranoside, reference compound], the inhibition at 40 µM in test [1] (40 μM inhibitor concentration, screening experiment, read-out: Percent inhibition of Galα3Galβ4GlcNAcβ:HRP conjugate binding to galectin-3) was 13%. In addition, in test [1], the 50% inhibitory concentration (IC50) is 199 µM and the Krel stood at 1.

As to `O=C[C@H](O)[C@@H](O)[C@@H](O)[C@H](O)CO` [D-galactose], the “affinity relative to lactose (times lower)” value in the test with galectins (galectins, compared with lactose) is reported as 50–100 times lower.

The Kd is a measure of binding affinity in units of concentration. In the case of `OC[C@H]1O[C@@H](O[C@H]2[C@H](O)[C@@H](O)C(O)O[C@@H]2CO)[C@H](O)[C@@H](O)[C@H]1O` (some centres unmarked) [lactose], the dissociation constant Kd at galectins (all galectins) was 500 to 1000 µM.

These data come from patent US7230096B2, “Inhibitors against galectins” (priority 2001, dated 2007).
